The results in this text go back to ChEMBL document CHEMBL1155423, “Unprecedented NES non-antagonistic inhibitor for nuclear export of Rev from Sida cordifolia” (Bioorg Med Chem Lett, 2010).

Where only a bound is given, the exact number is not on record here.

The nature of this test: Inhibition of CRM1 interaction with HIV1 HA-tagged Rev in HeLa cells assessed as inhibition of Rev nuclear export by indirect fluorescent antibody technique. It counts as cell-based.
Take `CC(O)CCCCCCCC(=O)O` (configuration not stated): the IC50 (usually the concentration that inhibits the measured activity by half) was 20.8 µM.
To `CCCCCCCCCC(O)CCCCCCCC(=O)O` (configuration not stated) belongs more than 30 µM.
To `CCCCC/C=C\C=C\CCCCCCCCC(=O)O` belongs 15 µM.
To `CCCCC/C=C\C=C\C(O)CCCCCCCC(=O)O` (configuration not stated) belongs 7.2 µM; to `CCCCC/C=C\C=C\C(O)CCC(=O)O` (configuration not stated), more than 30 µM; to `CCCCC/C=C\C=C\C(C)O` (configuration not stated), more than 30 µM.
`CCCCC/C=C\C=C\C(O)CCCCC(=O)O` (configuration not stated): the IC50 is more than 30 µM.
